Experimental data: patent publication US4146719A, “Piperazinyl derivatives of quinoline carboxylic acids” (priority 1977, dated 1979)
Values after ≈ are worked out from the molar mass of the structure shown.

How the values were obtained:
[1] = tested on: Pr. vulgaris XK Denken; experiment: Antibacterial activity in vitro, M.I.C., agar dilution streak method; assay type: cell-based, Proteus vulgaris; details: Gram -
[2] = tested on: Proteus vulgaris IFO 3167; experiment: as above; assay type: cell-based; details: Gram -
[3] = tested on: Ps. aeruginosa IID 1130; experiment: as above; assay type: cell-based, Pseudomonas aeruginosa; details: Gram -
[4] = tested on: Ps. aeruginosa IID 1210; experiment: as above; assay type: cell-based, Pseudomonas aeruginosa; details: Gram -
[5] = tested on: Str. faecalis IID 682; experiment: as above; assay type: cell-based; details: Gram +
[6] = tested on: Ps. aeruginosa IFO 12689; experiment: as above; assay type: cell-based, Pseudomonas aeruginosa; details: Gram -
[7] = tested on: Streptococcus pyogenes IID 692; experiment: as above; assay type: cell-based; details: Gram +
[8] = tested on: Neisseria perflava IID 856; experiment: as above; assay type: cell-based
[9] = tested on: Str. pyogenes S-8; experiment: as above; assay type: cell-based, Streptococcus pyogenes; details: Gram +
[10] = tested on: My. smegmatis IFO 3083; experiment: as above; assay type: cell-based; details: Gram +
[11] = tested on: Shigella sonnei IID 969; experiment: as above; assay type: cell-based; details: Gram -
[12] = tested on: Diplococcus pneumoniae IID 552; experiment: as above; assay type: cell-based; details: Gram +
[13] = tested on: Escherichia coli NIHJ; experiment: as above; assay type: cell-based
[14] = tested on: Pseudomonas aeruginosa V-1; experiment: as above; assay type: cell-based; details: Gram -
[15] = tested on: Bacillus subtilis PCI 219; experiment: as above; assay type: cell-based; details: Gram +
[16] = tested on: E. coli ATCC 10536; experiment: as above; assay type: cell-based, Escherichia coli
[17] = tested on: Klebsiella pneumoniae IFO 3512; experiment: as above; assay type: cell-based
[18] = tested on: Sta. aureus ATCC 14775; experiment: as above; assay type: cell-based, Staphylococcus aureus; details: Gram +
[19] = tested on: Haemophilus influenzae IID 986; experiment: as above; assay type: cell-based; details: Gram -
[20] = tested on: Corynebacterium pyogenes IID 548; experiment: as above; assay type: cell-based; details: Gram +
[21] = tested on: Mycobacterium phlei IFO 3142; experiment: as above; assay type: cell-based; details: Gram +
[22] = tested on: Salmonella enteritidis IID 604; experiment: as above; assay type: cell-based; details: Gram -
[23] = tested on: Staphylococcus aureus 209P; experiment: as above; assay type: cell-based; details: Gram +
[24] = Biliary excretion in rats after a single oral administration of 50 mg/kg; details: rat, in vivo, po, 50 mg/kg
[25] = tested on: Escherichia coli; experiment: Concentration ratio in serum to M.I.C. after oral administration of 50 mg/kg in rats; assay type: in vivo, Escherichia coli; rats; details: rat, in vivo, po, 50 mg/kg
[26] = tested on: Escherichia coli NIHJ JC-2; experiment: Preventive effect against ascending kidney infection in mice with Escherichia coli; assay type: in vivo, Escherichia coli; mice (ddY, female); details: Escherichia coli, NIHJJC2, 48 h, oral, 3 hours after inoculation, challenge 3.2 × 10^7 cells/mouse
Protocol: Ascending kidney infection was induced in female mice (strain: ddY, 6 weeks old, body weight: 22-26g), by instilling Escherlichia coli NIHJ JC-2 suspended in 0.04 ml of Tryptosoya broth (Nissan) into the urinary tract of mice anesthetized with sodium pentobarbital and by holding for 6 hours the mice in plastic tubes (diameter 25 mm) and clamping the outlet of urinary tract.
Each of these test material was orally administered 3 hours after inoculation. Mice were sacrificed 48 hours after inoculation. Kidneys were removed aseptically and bisected, and the two halves were pressed and streaked on agar plate containing Desoxycholate medium (Nissan). The therapeutic effect of each compound was evaluated from the absence of growth on the agar surface after 20 hours of incubation at 37° C.

[27] = tested on: Escherichia coli NIHJ JC-2; experiment: Influence of rat bile on antibacterial activity; assay type: cell-based; details: bile of rats
Protocol: Nutrient agar was heated and melted. […] The diameter of the inhibition zone was measured.

[28] = tested on: gram-positive and gram-negative bacteria including Pseudomonas aeruginosa; experiment: Antibacterial spectrum in vitro (summary in words); assay type: cell-based
[29] = tested on: Pseudomonas aeruginosa IID 1210; experiment: Preventive effect against systemic infection with Pseudomonas aeruginosa in mice; assay type: in vivo, Pseudomonas aeruginosa; mice (ddY, male); details: Pseudomonas aeruginosa, IID1210, oral, challenge 3.5 × 10^4 cells/mouse
Protocol: Systemic infection was produced by inoculating male mice (strain: ddY, 6 weeks old, body weight: 28-33g) in intraperitoneally with Pseudomonas aeruginosa IID 1210 suspended in 0.5 ml of Brain heart infusion broth (Eiken) containing 5% mucin. […] Each of these test materials was administered to the mice twice, immediately after and then 6 hours after the inoculation, and the therapeutic effect of each compounds was judged from the survival rate.
(1) Miller L. C. and M. L. Tainter: Estimation of the ED50 and its error by means of logarithmic-probit graph paper Proc. Soc. Exp. Biol. Med. 57 261-264 (1944)
(2) Litchfield J. T. and F. Wilcoxon: A simplified method of evaluating dose - effect J. Pharmacol. 92 99-113 (1948)

Gentamicin
M.I.C. [1]: 0.10 µg/mL
M.I.C. [2]: 0.20 µg/mL
M.I.C. [3]: 3.13 µg/mL
M.I.C. [4]: 12.5 µg/mL
M.I.C. [5]: 50 µg/mL
M.I.C. [6]: 12.5 µg/mL
M.I.C. [7]: 6.25 µg/mL
M.I.C. ([8]; Gram -): 0.78 µg/mL
M.I.C. [9]: 6.25 µg/mL
M.I.C. [10]: 0.20 µg/mL
M.I.C. [11]: 0.78 µg/mL
M.I.C. [12]: 12.5 µg/mL
M.I.C. ([13]; Gram -): 0.39 µg/mL
M.I.C. [14]: 0.78 µg/mL
M.I.C. [15]: 0.10 µg/mL
M.I.C. ([16]; Gram -): 0.39 µg/mL
M.I.C. ([17]; Gram -): 0.20 µg/mL
M.I.C. [18]: 0.10 µg/mL
M.I.C. [19]: 1.56 µg/mL
M.I.C. [20]: 0.78 µg/mL
M.I.C. [21]: 6.25 µg/mL
M.I.C. [22]: 1.56 µg/mL
M.I.C. [23]: 0.10 µg/mL

CCn1cc(C(=O)O)c(=O)c2cnc(N3CCNCC3)nc21 [Pipemidic acid]
concentration at 3 h [24]: 27400 ± 2600 ng/mL
concentration at 6 h [24]: 22600 ± 1700 ng/mL
concentration at 24 h [24]: 10200 ± 1200 ng/mL
concentration at 27 h [24]: < 2000 ng/mL
dose excreted at 3 h [24]: 0.6 ± 0.07%
dose excreted at 6 h [24]: 1.01 ± 0.1%
dose excreted at 24 h [24]: 1.97 ± 0.09%
dose excreted at 27 h [24]: 1.97 ± 0.09%
MIC ([1]; Proteus vulgaris, read-out: M.I.C.): 6.25 µg/mL (≈ 20.6 µM)
MIC ([2]; Proteus vulgaris, IFO3167, read-out: M.I.C.): 3.13 µg/mL (≈ 10.3 µM)
MIC ([3]; Pseudomonas aeruginosa, IID1130, read-out: M.I.C.): 25 µg/mL (≈ 82.4 µM)
serum concentration / M.I.C. ratio (in words) [25]: smaller than that of the compound (II)
time for which serum levels were maintained [25]: ≤ 2 h
MIC ([4]; Pseudomonas aeruginosa, IID1210, read-out: M.I.C.): 50 µg/mL (≈ 165 µM)
MIC ([6]; Pseudomonas aeruginosa, IFO12689, read-out: M.I.C.): 25 µg/mL (≈ 82.4 µM)
MIC ([7]; Streptococcus pyogenes, IID692, read-out: M.I.C.): > 100 µg/mL
MIC ([8]; Neisseria perflava, IID856): 1.56 µg/mL (≈ 5.14 µM)
MIC ([9]; Streptococcus pyogenes, S8, read-out: M.I.C.): > 100 µg/mL
ED50 ([26]; read-out: ED50 (95% confidence limit)): 74 mg/kg
ED90 ([26]; read-out: ED90): 235 mg/kg
MIC ([10]; Mycolicibacterium smegmatis, IFO3083, read-out: M.I.C.): 50 µg/mL (≈ 165 µM)
MIC ([11]; Shigella sonnei, IID969): 1.56 µg/mL (≈ 5.14 µM)
MIC ([12]; Streptococcus pneumoniae, IID552, read-out: M.I.C.): > 100 µg/mL
antibacterial activity in presence of bile (in words) [27]: not influenced by bile of rats
MIC ([13]; Escherichia coli): 1.56 µg/mL (≈ 5.14 µM)
MIC ([14]; Pseudomonas aeruginosa, V1, read-out: M.I.C.): 12.5 µg/mL (≈ 41.2 µM)
antibacterial activity (in words) [28]: inactive on many strains of gram-positive bacteria and many Pseudomonas aeruginosa strains
MIC ([15]; Bacillus subtilis, PCI219, read-out: M.I.C.): 6.25 µg/mL (≈ 20.6 µM)
MIC ([16]; Escherichia coli, ATCC10536): 1.56 µg/mL (≈ 5.14 µM)
MIC ([17]; Klebsiella pneumoniae, IFO3512): 1.56 µg/mL (≈ 5.14 µM)
MIC ([18]; Staphylococcus aureus, ATCC14775, read-out: M.I.C.): 100 µg/mL (≈ 330 µM)
MIC ([19]; Haemophilus influenzae, IID986, read-out: M.I.C.): 3.13 µg/mL (≈ 10.3 µM)
MIC ([20]; Corynebacterium pyogenes, IID548): 100 µg/mL
MIC ([21]; Mycolicibacterium phlei, IFO3142, read-out: M.I.C.): 12.5 µg/mL (≈ 41.2 µM)
ED50 ([29]; twice (immediately and 6 hours after inoculation), read-out: ED50 (95% confidence limit)): 400 mg/kg
ED90 ([29]; twice, read-out: ED90): 1120 mg/kg
MIC ([22]; Salmonella enterica, read-out: M.I.C.): 12.5 µg/mL (≈ 41.2 µM)
MIC ([23]; Staphylococcus aureus, 209P, read-out: M.I.C.): 25 µg/mL (≈ 82.4 µM)
